We go through 15 compounds from US11691962B2 (eXIthera Pharmaceuticals, Inc., priority 2018, dated 2023).

Assay type in all cases: biochemical
One experiment has as its target Factor XIa (Homo sapiens (Human), UniProt P03951). Kind of experiment: Factor XIa enzyme inhibition assay (dose response, fluorogenic AMC substrate). The settings on record: read-out: hFXIa IC50. Put shortly: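 Human FXIa at 0.25 nM final with 50 μM final PyroGlu-Pro-Arg-AMC in 20 mM Hepes pH 7.4, 150 mM NaCl, 0.02% Tween 20. Two-fold serial compound dilutions; fluorescence read every minute for 30 min at 30° C. IC50 from a four-parameter Hill fit.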

In a further experiment the target is Thrombin (Homo sapiens (Human), UniProt P00734). Nature of the experiment: Dose response assay for protease inhibitors: thrombin. Conditions: selectivity, thrombin over Factor XIa. An outline of the steps: (§1)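 Fluorogenic AMC-peptide cleavage in 20 mM Hepes pH 7.4, 150 mM NaCl, 0.02% Tween 20; 100 μM stock substrate dilution (Glp-Pro-Arg-AMC for thrombin/trypsin; Pro-Phe-Arg-AMC or Boc-Leu-Gly-Arg-AMC for Factor Xa). Enzyme diluted to 0.5 nM, added last to two-fold compound series; kinetic read at 30° C, 30 min (Factor Xa 60 min); IC50 fitted.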

For the next experiment, the system named is Trypsin. Nature of the experiment: Dose response assay for protease inhibitors: trypsin. Conditions: selectivity, trypsin over Factor XIa. An outline of the steps: as §1
A further experiment has as its target Factor Xa (Homo sapiens (Human), UniProt P00742). Nature of the experiment: Dose response assay for protease inhibitors: Factor Xa. Conditions: selectivity, Factor Xa over Factor XIa. An outline of the steps: as §1

Factor XIa, sequence (P03951 388-625): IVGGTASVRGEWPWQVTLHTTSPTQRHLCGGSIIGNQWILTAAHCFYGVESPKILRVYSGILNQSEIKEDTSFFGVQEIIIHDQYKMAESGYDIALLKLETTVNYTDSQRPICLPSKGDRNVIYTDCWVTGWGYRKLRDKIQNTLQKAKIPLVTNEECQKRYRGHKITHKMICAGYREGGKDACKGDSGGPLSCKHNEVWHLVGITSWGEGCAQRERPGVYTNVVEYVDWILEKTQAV
Factor XIa, sequence (P03951 19-387 partner): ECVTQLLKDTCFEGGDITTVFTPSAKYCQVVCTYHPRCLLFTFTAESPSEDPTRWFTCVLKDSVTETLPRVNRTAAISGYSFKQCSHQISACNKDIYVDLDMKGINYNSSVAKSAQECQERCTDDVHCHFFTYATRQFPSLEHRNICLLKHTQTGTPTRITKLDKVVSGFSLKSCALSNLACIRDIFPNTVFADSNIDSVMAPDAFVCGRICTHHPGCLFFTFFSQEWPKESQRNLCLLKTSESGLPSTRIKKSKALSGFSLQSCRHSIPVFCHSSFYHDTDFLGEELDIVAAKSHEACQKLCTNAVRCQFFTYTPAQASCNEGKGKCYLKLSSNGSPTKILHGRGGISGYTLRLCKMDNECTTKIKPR
Factor Xa, sequence (P00742 235-488): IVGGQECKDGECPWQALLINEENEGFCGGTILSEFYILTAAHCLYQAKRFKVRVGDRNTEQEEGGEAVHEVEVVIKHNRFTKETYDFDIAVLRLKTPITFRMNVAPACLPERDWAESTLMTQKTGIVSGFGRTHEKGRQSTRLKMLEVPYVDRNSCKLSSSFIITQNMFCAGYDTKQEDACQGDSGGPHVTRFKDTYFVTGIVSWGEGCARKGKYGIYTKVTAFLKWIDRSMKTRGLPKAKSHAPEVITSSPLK
Factor Xa, sequence (P00742 41-179 partner): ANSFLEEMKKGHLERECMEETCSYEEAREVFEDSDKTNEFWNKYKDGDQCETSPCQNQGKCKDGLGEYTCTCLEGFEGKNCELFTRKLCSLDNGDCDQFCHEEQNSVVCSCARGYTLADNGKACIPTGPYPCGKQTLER

By IC50 is commonly meant the midpoint of a concentration-inhibition curve. As to `CC[C@@H](NC(=O)N1C(=O)[C@H](Cc2cc(C)nc(N)c2)[C@H]1C(=O)N(C)c1nccn1C)c1ccc(C)c(C)c1` [Compound 1-109, (2S,3R)-3-((2-amino-6-methylpyridin-4-yl)methyl)-N2-(1-methyl-1H-imidazol-2-yl)-N1-((R)-1-(3,4-dimethylphenyl)propyl)-N2-methyl-4-oxoazetidine-1,2-dicarboxamide], the IC50 at Factor XIa is less than 10 nM. For the same compound, the “Ratio: Thrombin/FXIa” value at Thrombin is recorded as “H (“H” indicates 101-1000)”. The “Ratio: Trypsin/FXIa” value in the experiment on Trypsin was “G (“G” indicates 1-100)”. Besides, at Factor Xa, the “Ratio: FXa/FXIa” value is on record as “H (“H” indicates 101-1000)”.

Take `CC[C@@H](NC(=O)N1C(=O)[C@H](Cc2cc(C)nc(N)c2)[C@H]1C(=O)N(C)c1nccn1C)c1cc(C)ccc1Cl` [Compound 1-111, (2S,3R)-3-((2-amino-6-methylpyridin-4-yl)methyl)-N2-(1-methyl-1H-imidazol-2-yl)-N1-((R)-1-(2-chloro-5-methylphenyl)propyl)-N2-methyl-4-oxoazetidine-1,2-dicarboxamide]: on Factor XIa, the IC50 was less than 10 nM. Also, on Thrombin, the “Ratio: Thrombin/FXIa” value is recorded as “H (“H” indicates 101-1000)”. Moreover, the “Ratio: Trypsin/FXIa” value with Trypsin is given as “G (“G” indicates 1-100)”. Further, the “Ratio: FXa/FXIa” value at Factor Xa is recorded as “H (“H” indicates 101-1000)”.

On to `CC[C@@H](NC(=O)N1C(=O)[C@H](Cc2cc(C)nc(N)c2)[C@H]1C(=O)N(C)c1nccn1C)c1cc(C)ccc1F` [Compound 1-112, (2S,3R)-3-((2-amino-6-methylpyridin-4-yl)methyl)-N2-(1-methyl-1H-imidazol-2-yl)-N1-((R)-1-(2-fluoro-5-methylphenyl)propyl)-N2-methyl-4-oxoazetidine-1,2-dicarboxamide], for which the IC50 on Factor XIa fell in the range of 10 to 100 nM. Moreover, the “Ratio: Thrombin/FXIa” value on Thrombin is given as “H (“H” indicates 101-1000)”. Further, the “Ratio: Trypsin/FXIa” value in the experiment with Trypsin was “G (“G” indicates 1-100)”. Also, the “Ratio: FXa/FXIa” value on Factor Xa is reported as “I (“I” indicates > 500)”.

For `CC[C@@H](NC(=O)N1C(=O)[C@H](Cc2cc(C)nc(N)c2)[C@H]1C(=O)N(C)c1nccn1C)c1ccc(C)c(Cl)c1` [Compound 1-113, (2S,3R)-3-((2-amino-6-methylpyridin-4-yl)methyl)-N2-(1-methyl-1H-imidazol-2-yl)-N1-((R)-1-(3-chloro-4-methylphenyl)propyl)-N2-methyl-4-oxoazetidine-1,2-dicarboxamide], the concentration for half-maximal inhibition (IC50) on Factor XIa was less than 10 nM. Moreover, the “Ratio: Thrombin/FXIa” value at Thrombin is listed as “H (“H” indicates 101-1000)”. Besides, the “Ratio: Trypsin/FXIa” value in the experiment on Trypsin is “G (“G” indicates 1-100)”. The “Ratio: FXa/FXIa” value on Factor Xa is reported as “H (“H” indicates 101-1000)”.

Take `CC[C@@H](NC(=O)N1C(=O)[C@H](Cc2ccnc(N)c2)[C@H]1C(=O)N(C)c1nccn1C)c1ccc(C)cc1C` [Compound 1-114, (2S,3R)-3-((2-aminopyridin-4-yl)methyl)-N2-(1-methyl-1H-imidazol-2-yl)-N1-((R)-1-(2,4-dimethylphenyl)propyl)-N2-methyl-4-oxoazetidine-1,2-dicarboxamide]: the 50% inhibitory concentration (IC50) at Factor XIa is less than 10 nM. The “Ratio: Thrombin/FXIa” value on Thrombin is given as “H (“H” indicates 101-1000)”. Besides, the “Ratio: Trypsin/FXIa” value with Trypsin is recorded as “G (“G” indicates 1-100)”. Further, the “Ratio: FXa/FXIa” value at Factor Xa is given as “H (“H” indicates 101-1000)”.

Consider `CC[C@@H](NC(=O)N1C(=O)[C@H](Cc2ccnc(N)c2)[C@H]1C(=O)N(C)c1ccn(C)n1)c1cc(F)ccc1F` [Compound 1-123, (2S,3R)-3-((2-aminopyridin-4-yl)methyl)-N2-(1-methyl-1H-pyrazol-3-yl)-N1-((R)-1-(2,5-difluorophenyl)propyl)-N2-methyl-4-oxoazetidine-1,2-dicarboxamide], for which the concentration for half-maximal inhibition (IC50) on Factor XIa is less than 10 nM. Also, the “Ratio: Thrombin/FXIa” value on Thrombin is reported as “H (“H” indicates 101-1000)”. The “Ratio: Trypsin/FXIa” value in the experiment on Trypsin is listed as “G (“G” indicates 1-100)”. In addition, the “Ratio: FXa/FXIa” value at Factor Xa is “I (“I” indicates > 500)”.

On to `CC[C@@H](NC(=O)N1C(=O)[C@H](Cc2ccnc(N)c2)[C@H]1C(=O)N(C)c1ccn(C)n1)c1cc(C)ccc1F` [Compound 1-125, (2S,3R)-3-((2-aminopyridin-4-yl)methyl)-N2-(1-methyl-1H-pyrazol-3-yl)-N1-((R)-1-(2-fluoro-5-methylphenyl)propyl)-N2-methyl-4-oxoazetidine-1,2-dicarboxamide], for which the IC50 at Factor XIa was less than 10 nM. On Thrombin, the “Ratio: Thrombin/FXIa” value is on record as “H (“H” indicates 101-1000)”. In addition, in the experiment on Trypsin, the “Ratio: Trypsin/FXIa” value is given as “G (“G” indicates 1-100)”. In addition, on Factor Xa, the “Ratio: FXa/FXIa” value is reported as “I (“I” indicates > 500)”.

Take `CC[C@@H](NC(=O)N1C(=O)[C@H](Cc2ccnc(N)c2)[C@H]1C(=O)N(C)c1ccn(C)n1)c1ccc(C)c(C)c1` [Compound 1-127, (2S,3R)-3-((2-aminopyridin-4-yl)methyl)-N2-(1-methyl-1H-pyrazol-3-yl)-N1-((R)-1-(3,4-dimethylphenyl)propyl)-N2-methyl-4-oxoazetidine-1,2-dicarboxamide]: the IC50 on Factor XIa is less than 10 nM. Moreover, the “Ratio: Thrombin/FXIa” value on Thrombin is listed as “H (“H” indicates 101-1000)”. In the experiment with Trypsin, the “Ratio: Trypsin/FXIa” value is listed as “G (“G” indicates 1-100)”. In addition, the “Ratio: FXa/FXIa” value on Factor Xa is listed as “H (“H” indicates 101-1000)”.

Turning to `CC[C@@H](NC(=O)N1C(=O)[C@H](Cc2ccnc(N)c2)[C@H]1C(=O)N(C)c1ccn(C)n1)c1cccc(F)c1C` [Compound 1-128, (2S,3R)-3-((2-aminopyridin-4-yl)methyl)-N2-(1-methyl-1H-pyrazol-3-yl)-N1-((R)-1-(2-methyl-3-fluorophenyl)propyl)-N2-methyl-4-oxoazetidine-1,2-dicarboxamide], the IC50 on Factor XIa was less than 10 nM. The “Ratio: Thrombin/FXIa” value on Thrombin is “H (“H” indicates 101-1000)”. Further, the “Ratio: Trypsin/FXIa” value with Trypsin is listed as “G (“G” indicates 1-100)”. Moreover, at Factor Xa, the “Ratio: FXa/FXIa” value is recorded as “H (“H” indicates 101-1000)”.

Turning to `CC[C@@H](NC(=O)N1C(=O)[C@H](Cc2ccnc(N)c2)[C@H]1C(=O)N(C)c1ccn(C)n1)c1ccc(C)c(Cl)c1` [Compound 1-129, (2S,3R)-3-((2-aminopyridin-4-yl)methyl)-N2-(1-methyl-1H-pyrazol-3-yl)-N1-((R)-1-(3-chloro-4-methylphenyl)propyl)-N2-methyl-4-oxoazetidine-1,2-dicarboxamide], on Factor XIa, the concentration for half-maximal inhibition (IC50) was less than 10 nM. Further, the “Ratio: Thrombin/FXIa” value on Thrombin is “H (“H” indicates 101-1000)”. In addition, the “Ratio: Trypsin/FXIa” value with Trypsin is given as “G (“G” indicates 1-100)”. In addition, the “Ratio: FXa/FXIa” value on Factor Xa is recorded as “H (“H” indicates 101-1000)”.

In the case of `CC[C@@H](NC(=O)N1C(=O)[C@H](Cc2ccnc(N)c2)[C@H]1C(=O)N(C)c1ccn(C)n1)c1cccc(F)c1F` [Compound 1-134, (2S,3R)-3-((2-aminopyridin-4-yl)methyl)-N2-(1-methyl-1H-pyrazol-3-yl)-N1-((R)-1-(2,3-difluorophenyl)propyl)-N2-methyl-4-oxoazetidine-1,2-dicarboxamide], the IC50 at Factor XIa is less than 10 nM. Besides, the “Ratio: Thrombin/FXIa” value on Thrombin is listed as “H (“H” indicates 101-1000)”. Besides, the “Ratio: Trypsin/FXIa” value in the experiment on Trypsin is on record as “G (“G” indicates 1-100)”. Besides, the “Ratio: FXa/FXIa” value on Factor Xa was “I (“I” indicates > 500)”.

`CC[C@@H](NC(=O)N1C(=O)[C@H](Cc2ccnc(N)c2)[C@H]1C(=O)N(C)c1ccn(C)n1)c1ccc(C)c(F)c1` [Compound 1-136, (2S,3R)-3-((2-aminopyridin-4-yl)methyl)-N2-(1-methyl-1H-pyrazol-3-yl)-N1-((R)-1-(3-fluoro-4-methylphenyl)propyl)-N2-methyl-4-oxoazetidine-1,2-dicarboxamide]: at Factor XIa, the IC50 is less than 10 nM. Further, on Thrombin, the “Ratio: Thrombin/FXIa” value is reported as “H (“H” indicates 101-1000)”. In addition, the “Ratio: Trypsin/FXIa” value in the experiment on Trypsin is reported as “G (“G” indicates 1-100)”. For the same compound, the “Ratio: FXa/FXIa” value on Factor Xa is on record as “H (“H” indicates 101-1000)”.

Regarding `CC[C@@H](NC(=O)N1C(=O)[C@H](Cc2cc(C)nc(N)c2)[C@H]1C(=O)N(C)c1ccn(C)n1)c1cc(C)ccc1F` [Compound 1-143, (2S,3R)-3-((2-amino-6-methylpyridin-4-yl)methyl)-N2 (1-methyl-1H-pyrazol-3-yl)-N1-((R)-1-(2-fluoro-5-methylphenyl)propyl)-N2-methyl-4-oxoazetidine-1,2-dicarboxamide], the IC50 on Factor XIa is less than 10 nM. The “Ratio: Thrombin/FXIa” value at Thrombin was “H (“H” indicates 101-1000)”. In the experiment with Trypsin, the “Ratio: Trypsin/FXIa” value is listed as “G (“G” indicates 1-100)”. On Factor Xa, the “Ratio: FXa/FXIa” value is “I (“I” indicates > 500)”.

As for `CC[C@@H](NC(=O)N1C(=O)[C@H](Cc2cc(C)nc(N)c2)[C@H]1C(=O)N(C)c1ccn(C)n1)c1cc(F)ccc1F` [Compound 1-144, (2S,3R)-3-((2-amino-6-methylpyridin-4-yl)methyl)-N2-(1-methyl-1H-pyrazol-3-yl)-N1-((R)-1-(2,5-difluorophenyl)propyl)-N2-methyl-4-oxoazetidine-1,2-dicarboxamide], the IC50 on Factor XIa was less than 10 nM. Besides, at Thrombin, the “Ratio: Thrombin/FXIa” value is “H (“H” indicates 101-1000)”. Moreover, the “Ratio: Trypsin/FXIa” value with Trypsin is recorded as “G (“G” indicates 1-100)”. Besides, at Factor Xa, the “Ratio: FXa/FXIa” value is reported as “I (“I” indicates > 500)”.

Take `CC[C@@H](NC(=O)N1C(=O)[C@H](Cc2cc(C)nc(N)c2)[C@H]1C(=O)N(C)c1ccn(C)n1)c1cccc(F)c1F` [Compound 1-146, (2S,3R)-3-((2-amino-6-methylpyridin-4-yl)methyl)-N2-(1-methyl-1H-pyrazol-3-yl)-N1-((R)-1-(2,3-difluorophenyl)propyl)-N2-methyl-4-oxoazetidine-1,2-dicarboxamide]: the 50% inhibitory concentration (IC50) on Factor XIa is less than 10 nM. On Thrombin, the “Ratio: Thrombin/FXIa” value is given as “H (“H” indicates 101-1000)”. Moreover, the “Ratio: Trypsin/FXIa” value in the experiment with Trypsin is “G (“G” indicates 1-100)”. Moreover, the “Ratio: FXa/FXIa” value at Factor Xa is “I (“I” indicates > 500)”.
